In patent US20040086471A1, “Compositions for darkening the skin and/or hair” (priority 2002, published 2004):

Experiments:
[1] = test system: Type IV pigmented epidermal equivalents (human melanocytes and keratinocytes); tyrosinase activity / melanin deposition; assay: Pigmentation in pigmented epidermal equivalents (DOPA and F&M staining); assay type: cell-based; details: for Overall Score (change of pigmentation by DOPA and F&M staining) / Score DOPA staining (tyrosinase activity) / Score F&M staining (Pigment deposition): 0.1% (w/v) in PBS, treated three or five days, type IV epidermal equivalents
Description: Copper PCA (Barnet Products Corp., Englewood cliffs, N.J.) was tested for its ability to induce pigmentation in pigmented epidermal equivalents. The pigmented epidermal equivalents contained human normal melanocytes, together with normal, human-derived epidermal keratinocytes, which have been cultured to form a multi-layered, highly differentiated model of the human epidermis. Type IV pigmented epidermal equivalents (consisting of normal human keratinocytes pooled from variety of phototype skins and normal human melanocytes derived from type IV phototype skin) were treated with test compounds for three or five days and samples were harvested on the fourth or sixth day of the study. The harvested equivalents were stained with DOPA (a substrate for tyrosinase) or with Fontana-Mason (F&M) (Sheenan DC, Hrapckak BB, eds: Theory and practice of Histo-Thchnology (St Louis: CV Mosby, 1980) pp 223-277). F&M staining identifies silver nitrate reducing activity, which, in skin, identifies melanin.
The epidermal equivalents used were SkinEthic® reconstructed human epidermis from SkinEthic™ Laboratory (Nice, France). UV irradiation was performed with a UVB FS light source in an exposure chamber, with plate covers removed and Phosphate-buffered saline (PBS, from Gibco-BRL, Gaithersburg, Md.) present in the lower chamber. UVB intensity was measured with a UVX radiometer (UVP Inc., San Gabriel, Ca.). Equivalents were treated with 0.1-0.12 J/cm2. […] The copper PCA and tyrosine were dissolved in PBS.
On the fourth or sixth day of the study, the equivalents were fixed, sectioned and F&M stained, or they were DOPA stained as whole without sectioning, using standard techniques. At least three sections per equivalent, three equivalents per experiment were processed. Each experiment was repeated three times. DOPA-stained epidermal equivalents were evaluated for the change in tyrosinase activity. F&M-stained histological sections were evaluated for the change in pigment deposition. Due to the low content of melanin within the type IV epidermal equivalent, it was not possible to quantify the level of pigment within melanocytes in F&M stained sections by image analysis. Therefore, the pigment change was evaluated using the scale defined below in Table 1.
Table 2 represents the overall score in change of pigmentation, as evaluated by DOPA and F&M staining, as set forth above, when equivalents were exposed to Copper PCA (0.1% (w/v)) and/or tyrosine (0.1% (w/v)) or UVB irradiation (0.10J/cm^2).

[2] = test system: skin of Yucatan microswine; assay: Pigment deposition in swine skin in vivo (F&M histology of biopsies); details: for pigment deposition in swine skin (in words): topical, in vivo, histological analysis
From the text: Dark skinned Yucatan microswine (Charles River, Portland, Me.) were housed in appropriately sized cages in an environmentally controlled room with a 12-hour light—12-hour dark photoperiod and supplied with food and water ad libi tum. Twenty μl of test materials were applied topically, twice a day, five days/week, for eight or nine weeks, on the dorsum of the swine. Treatments of individual swine were always arranged in a head to tail order on one side, and in a tail to head order on the other side of the animal. Biopsies were taken using standard techniques.
Swine were treated with either 0.5% w(w/v) of the copper PCA and/or tyrosine or ultraviolet-B radiation (as a positive control). The copper PCA and tyrosine were dissolved in ethanol: propylene glycol 70:30 (v/v). A […] erythema dose (MED) of UVB was determined by placing a plastic template with 1×1 inch^2 cutouts on the dorsum of the swine. Using a UVB lamp (Model UVM-57, 302 nm lamp, UVP Inc., Upland, Calif.) placed on the template, sites were exposed to UVB with increasing time points, every other day for five days. Unexposed sites were covered with the same material as the template. One MED was established as the dose that produces the least amount of visible erythema. Swine were exposed to one MED, once per day, on three alternate days (Mon, Wed, Fri).
Following eight weeks of treatment, skin biopsies were taken using standard methods, for pigment deposition analysis. Sections from the skin biopsies were stained with Hematoxylin and Eosin (H&E), or with Fontana-Mason (F&M), using standard procedures (Sheenan DC, Hrapckak BB, eds., Theory and Practice of Histo-Technology (The C. V. Mosby Co., St. Louis (1980) pp. 223-277). At least three sections per biopsy were processed. Each experiment was repeated at least two times.
Table 4 represents the average value of all sites of responsive swine treated with each test material. The scale for evaluation is defined in Table 3.

SMILES | Overall Score (change of pigmentation by DOPA and F&M staining) [1] | Score DOPA staining (tyrosinase activity) [1] | Score F&M staining (Pigment deposition) [1] | tyrosinase activity in human pigmented epidermal equivalents (in words) ([1]; in vitro) | Score (pigment deposition, capped epidermal cells) ([2]; 0.5% (w/v) topical, twice a day, five days/week, eight weeks, average of all sites of responsive swine) | pigment deposition in swine skin (in words) [2] | pigment deposition in swine skin (in words) ([2]; listed as copper PCA)
N[C@@H](Cc1ccc(O)cc1)C(=O)O [Tyrosine, tyrosine] | 0-2 | 1-2 | 0-1 | – | – | – | –
O=C1CC[C@@H](C(=O)[O-])N1.O=C1CC[C@@H](C(=O)[O-])N1.[Cu+2] [Copper PCA] | 1-2 | 1-2 | 1-2 | significantly increases | 2-3 | enhanced pigment deposition | significantly increases
